Laboratory results from patent US20130253011A1, “INSECTICIDAL COMPOUNDS” (SYNGENTA PARTICIPATIONS AG, priority 2010, published 2013).

Question: With `COc1c(-c2cn(-c3c(C(F)(F)F)c(C(F)(F)C(F)(F)F)nn3C)nn2)cccc1N(C)C(=O)c1c(F)cc(F)cc1F` as the molecule, how does the melting point read?
Answer: The melting point was 80 to 82 °C.
